From patent publication US10905675B2, “Use of carbamate compound for prevention, alleviation or treatment of pruritus” (SK BIOPHARMACEUTICALS CO., LTD., priority 2016, dated 2021)

Columns and labels:
[1] = test system: acute pruritus induced by intradermal administration of serotonin; experiment: Acute pruritus animal model induced by intradermal administration of serotonin (scratching reactions); format: in vivo, rats (Sprague-Dawley); settings: rats; for inhibition of acute pruritus (number of scratching reactions) compared to the control group: 1 hour before intradermal serotonin, scratching counted for 30 minutes
Protocol: Mature male rats (Sprague-Dawley, 200 to 230 g) were used. The experimental animals were maintained at a light-and-darkness cycle of 12 hours (illuminated from 7 pm to 7 am), a temperature of 22 to 25° C., a relative humidity of 40 to 60%, and free access to water and food. The animals were randomly divided into three groups as follows: • Eight (8) rats as a control group, orally administered with 30% PEG400 as a vehicle at a dose of 5 ml/kg • Eight (8) rats, orally administered with the test compound at a dose of 10 mg/kg (5 ml/kg) • Eight (8) rats, orally administered with the test compound at a dose of 30 mg/kg (5 ml/kg)
On the day before the experiment, the skin fur on the right scapula of the rats was shaved to an area of about 2 cm square. On the day of the experiment, serotonin hydrochloride was dissolved in 0.9% physiological saline at a concentration of 4 mg/ml. The rats were placed in an acrylic box (20×30×20 cm) and adapted for 15 minutes in a quiet area, followed by intradermal administration of the dissolved serotonin in 50 μl per rat on the shaved area (Thomsen et al, Scratch induction in the rat by intradermal serotonin: a model for pruritus, Acta Derm Venereol, 2001).
Only when the rats scratched body parts within 5 cm square around the skin area where serotonin was administered, it was judged to be a valid scratching reaction.
The test compound was orally administered to the rats at a dose of 10 mg/kg (5 ml/kg) and 30 mg/kg (5 ml/kg) 1 hour before intradermal administration of serotonin.

[2] = test system: chronic pruritus induced by administration of capsaicin immediately after birth; experiment: Chronic pruritus animal model induced by subcutaneous administration of capsaicin immediately after birth (scratching reactions); format: in vivo, rats (Sprague-Dawley); settings: rats, oral 30 mg/kg, 1 hour before measurement, third week after capsaicin, scratching counted for 1 hour
Protocol: Baby rats within 48 hours after birth (Sprague-Dawley, 7 to 10 g) were obtained together with the mother rats, and were used. The experimental animals were maintained at a light-and-darkness cycle of 12 hours (illuminated from 7 pm to 7 am), a temperature of 22 to 25° C., a relative humidity of 40 to 60%, and free access to water and food. Until the 21st day after birth, the baby rats were bred together with the mother rats and allowed to drink the mother's milk. After the 21st day, the baby rats were kept off the milk and separated from the mother rats. The animals were randomly divided into two groups as follows: • Seven (7) rats as a control group, orally administered with 30% PEG400 as a vehicle at a dose of 5 ml/kg • Seven (7) rats, orally administered with the test compound at a dose of 30 mg/kg (5 ml/kg) […]
On the third week after capsaicin administration, the animals were placed in an acrylic box (20×30×20 cm), adapted for 30 minutes in a quiet area, and then observed for the number of scratching behaviors for 1 hour. One continuous scratching reaction was counted as one scratching reaction. […]

## NC(=O)O[C@@H](Cn1ncnn1)c1ccccc1Cl [the test compound]
[1]; oral 10 mg/kg and 30 mg/kg
  dose dependence of the reduction of itching responses: dose-dependent
[1]; oral 10 mg/kg
  inhibition of acute pruritus (number of scratching reactions) compared to the control group: statistically significantly inhibited
[1]; oral 30 mg/kg
  inhibition of acute pruritus (number of scratching reactions) compared to the control group: statistically significantly inhibited
[2]
  inhibition of chronic pruritus (number of scratching reactions) compared to the control group: statistically significantly inhibited
